From patent publication US20090131431A1, “Pyrazolo[3,4-b]pyridine compounds, and their use as a PDE4 inhibitors” (priority 2005, published 2009) come the findings set out here.

This assay deals with T1, PDE4B (human recombinant) (Homo sapiens, UniProt Q07343).
T1 construct: made in house
Put plainly: Inhibition of PDE4B activity: SPA and/or Fluorescence Polarisation (FP) assay. Particulars: one reading (n=1) or average of 2 or more readings, read-out: PDE4B pIC50 (±about 0.5) (converted). Format: biochemical. The protocol: The ability of compounds to inhibit catalytic activity at PDE4B or 4D (human recombinant), PDE3 (from bovine aorta), PDE5 (human recombinant) or PDE6 (from bovine retina) can optionally be determined by Scintillation Proximity Assay (SPA) in a 96-well format.
The enzyme concentration is adjusted so that no more than 20% hydrolysis of the substrate defined below occurs in control wells without compound, during the incubation. For the PDE3, PDE4B and PDE4D assays, [5′,8-3H]Adenosine 3′,5′-cyclic phosphate (Amersham Pharmacia Biotech, code TRK.559; or Amersham Biosciences UK Ltd, Pollards Wood, Chalfont St Giles, Buckinghamshire HP8 4SP, UK) is added to give 0.05 uCi per well and about 10 nM final concentration. […] Plates containing assay mixture, suitably approx. 100 ul volume of assay mixture, are mixed on an orbital shaker for 5 minutes and incubated at ambient temperature for 1 hour. Phosphodiesterase SPA beads (Amersham Pharmacia Biotech, code RPNQ 0150) are added (about 1 mg per well) to terminate the assay. Plates are sealed and shaken and allowed to stand at ambient temperature for 35 minutes to 1 hour (suitably 35 minutes) to allow the beads to settle. […] Curves are analysed using ActivityBase and XLfit (ID Business Solutions Limited, 2 Ocean Court, Surrey Research Park, Guildford, Surrey GU2 7QB, United Kingdom). Results are expressed as pIC50 values.
The ability of compounds to inhibit catalytic activity at PDE4B (human recombinant) or PDE4D (human recombinant) can optionally be determined by IMAP Fluorescence Polarisation (FP) assay (IMAP Explorer kit, available from Molecular Devices Corporation, Sunnydale, Calif., USA; Molecular Devices code: R8062) in 384-well format.
The IMAP FP assay is able to measure PDE activity in an homogenous, non-radioactive assay format. The FP assay uses the ability of immobilised trivalent metal cations, coated onto nanoparticles (tiny beads), to bind the phosphate group of Fl-AMP that is produced on the hydrolysis of fluorescein-labelled (Fl) cyclic adenosine mono-phosphate (Fl-cAMP) to the non-cyclic Fl-AMP form. […] Binding of Fl-AMP product to the beads (coated with the immobilised trivalent cations) slows the rotation of the bound Fl-AMP and leads to an increase in the fluorescence polarisation ratio of parallel to perpendicular light. Inhibition of the PDE reduces/inhibits this signal increase.
The enzyme level is set by experimentation so that reaction is linear throughout the incubation. Fluorescein adenosine 3′,5′-cyclic phosphate (from Molecular Devices Corporation, Molecular Devices code: R7091) is added to give about 40 nM final concentration (final assay volume usually ca. 20-40 ul, suitably ca. 20 ul). Plates are mixed on an orbital shaker for 10 seconds and incubated at ambient temperature for 40 minutes. IMAP binding reagent (as described above, from Molecular Devices Corporation, Molecular Devices code: R7207) is added (60 ul of a 1 in 400 dilution in binding buffer of the kit stock solution) to terminate the assay. Plates are allowed to stand at ambient temperature for 1 hour. The Fluorescence Polarisation (FP) ratio of parallel to perpendicular light is measured using an Analyst™ plate reader (from Molecular Devices Corporation). […] Curves are analysed using ActivityBase and XLfit (ID Business Solutions Limited, 2 Ocean Court, Surrey Research Park, Guildford, Surrey GU2 7QB, United Kingdom). Results are expressed as plC50 values.
On the technique in general: Polarisation of emitted light reports the rotation of a fluorescent probe.

T1 sequence (Q07343 1-564 isoform Q07343-2): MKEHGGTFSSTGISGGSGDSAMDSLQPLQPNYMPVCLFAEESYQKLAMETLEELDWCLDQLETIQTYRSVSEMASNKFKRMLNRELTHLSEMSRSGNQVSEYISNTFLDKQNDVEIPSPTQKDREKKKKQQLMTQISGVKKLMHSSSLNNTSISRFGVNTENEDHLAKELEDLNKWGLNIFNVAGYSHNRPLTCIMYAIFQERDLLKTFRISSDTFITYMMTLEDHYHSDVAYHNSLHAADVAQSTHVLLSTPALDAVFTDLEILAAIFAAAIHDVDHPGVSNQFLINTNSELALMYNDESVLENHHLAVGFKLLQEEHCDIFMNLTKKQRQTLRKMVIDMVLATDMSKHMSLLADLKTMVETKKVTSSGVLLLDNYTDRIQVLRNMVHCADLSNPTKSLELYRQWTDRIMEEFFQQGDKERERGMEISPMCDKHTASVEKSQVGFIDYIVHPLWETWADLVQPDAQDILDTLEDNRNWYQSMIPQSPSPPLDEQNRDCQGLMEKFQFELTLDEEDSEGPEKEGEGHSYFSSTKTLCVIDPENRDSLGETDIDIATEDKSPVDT

With `CCn1ncc2c(NC3CCOCC3)c(CNC(=O)c3ccc(N(C)C)cc3)cnc21` [Example 88, 4-(dimethylamino)-N-{[1-ethyl-4-(tetrahydro-2H-pyran-4-ylamino)-1H-pyrazolo[3,4-b]pyridin-5-yl]methyl}benzamide], the IC50 is 0.126 to 1 nM.
As for `CCn1ncc2c(NC3CCOCC3)c(CNC(=O)c3ccc(NC(C)=O)cc3)c(C)nc21` [Example 93, 4-(acetylamino)-N-{[1-ethyl-6-methyl-4-(tetrahydro-2H-pyran-4-ylamino)-1H-pyrazolo[3,4-b]pyridin-5-yl]methyl}benzamide], the figure is 0.126 to 1 nM; as for `CCn1ncc2c(NC3CCOCC3)c(CNS(=O)(=O)c3cccs3)c(C)nc21` [Example 108, N-{[1-ethyl-6-methyl-4-(tetrahydro-2H-pyran-4-ylamino)-1H-pyrazolo[3,4-b]pyridin-5-yl]methyl}-2-thiophenesulfonamide], 0.126 to 1 nM; as for `CCn1ncc2c(NC3CCOCC3)c(CNC(=O)c3ccc(N4CCCCC4)cc3)c(C)nc21` [Example 116, N-{[1-ethyl-6-methyl-4-(tetrahydro-2H-pyran-4-ylamino)-1H-pyrazolo[3,4-b]pyridin-5-yl]methyl}-4-(1-piperidinyl)benzamide], 0.01 to 0.1 nM.
To `CCn1ncc2c(NC3CCOCC3)c(CNC(=O)c3cccc(N(C)C)c3)cnc21` [Example 120, 3-(dimethylamino)-N-{[1-ethyl-4-(tetrahydro-2H-pyran-4-ylamino)-1H-pyrazolo[3,4-b]pyridin-5-yl]methyl}benzamide] belongs 0.126 to 1 nM; to `CCn1ncc2c(NC3CCOCC3)c(CNC(=O)c3ccc(S(C)(=O)=O)cc3)c(C)nc21` [Example 124, N-{[1-ethyl-6-methyl-4-(tetrahydro-2H-pyran-4-ylamino)-1H-pyrazolo[3,4-b]pyridin-5-yl]methyl}-4-(methylsulfonyl)benzamide], 0.126 to 1 nM.
As for `CCn1ncc2c(NC3CCOCC3)c(CNC(=O)c3cccnc3)c(C)nc21` [Example 125, N-{[1-ethyl-6-methyl-4-(tetrahydro-2H-pyran-4-ylamino)-1H-pyrazolo[3,4-b]pyridin-5-yl]methyl}-3-pyridinecarboxamide], the figure is 0.126 to 1 nM.
Take `CCc1nc2c(cnn2CC)c(NC2CCOCC2)c1CNC(=O)c1cnccn1` [Example 146, N-{[1,6-diethyl-4-(tetrahydro-2H-pyran-4-ylamino)-1H-pyrazolo[3,4-b]pyridin-5-yl]methyl}-2-pyrazinecarboxamide]: the IC50 was 0.126 to 1 nM.
To `CCc1nc2c(cnn2CC)c(NC2CCOCC2)c1CNC(=O)c1cccc(NC(C)=O)c1` [Example 147, 3-(acetylamino)-N-{[1,6-diethyl-4-(tetrahydro-2H-pyran-4-ylamino)-1H-pyrazolo[3,4-b]pyridin-5-yl]methyl}benzamide] belongs 0.01 to 0.1 nM; to `CCc1nc2c(cnn2CC)c(NC2CCOCC2)c1CNC(=O)c1ccc(-n2cccc2)nc1` [Example 148, N-{[1,6-diethyl-4-(tetrahydro-2H-pyran-4-ylamino)-1H-pyrazolo[3,4-b]pyridin-5-yl]methyl}-6-(1H-pyrrol-1-yl)-3-pyridinecarboxamide], 0.01 to 0.1 nM; to `CCc1nc2c(cnn2CC)c(NC2CCOCC2)c1CNC(=O)c1cccc(N2CCCC2=O)c1` [Example 149, N-{[1,6-diethyl-4-(tetrahydro-2H-pyran-4-ylamino)-1H-pyrazolo[3,4-b]pyridin-5-yl]methyl}-3-(2-oxo-1-pyrrolidinyl)benzamide], 0.01 to 0.1 nM.
As to `CCc1nc2c(cnn2CC)c(NC2CCOCC2)c1CNC(=O)c1ccnnc1` [Example 150, N-{[1,6-diethyl-4-(tetrahydro-2H-pyran-4-ylamino)-1H-pyrazolo[3,4-b]pyridin-5-yl]methyl}-4-pyridazinecarboxamide], the IC50 is 0.126 to 1 nM.
As for `CCc1nc2c(cnn2CC)c(NC2CCOCC2)c1CNC(=O)c1cncnc1` [Example 151, N-{[1,6-diethyl-4-(tetrahydro-2H-pyran-4-ylamino)-1H-pyrazolo[3,4-b]pyridin-5-yl]methyl}-5-pyrimidinecarboxamide], the figure is 0.126 to 1 nM.
As to `CCc1nc2c(cnn2CC)c(NC2CCOCC2)c1CNC(=O)c1ccco1` [Example 153, N-{[1,6-diethyl-4-(tetrahydro-2H-pyran-4-ylamino)-1H-pyrazolo[3,4-b]pyridin-5-yl]methyl}-2-furancarboxamide], the IC50 was 0.01 to 0.1 nM.
As for `CCc1nc2c(cnn2CC)c(NC2CCOCC2)c1CNC(=O)c1ccoc1` [Example 154, N-{[1,6-diethyl-4-(tetrahydro-2H-pyran-4-ylamino)-1H-pyrazolo[3,4-b]pyridin-5-yl]methyl}-3-furancarboxamide], the figure is 0.126 to 1 nM.
As for `CCc1nc2c(cnn2CC)c(NC2CCOCC2)c1CNC(=O)c1nc(C)oc1C(F)(F)F` [Example 155, N-{[1,6-diethyl-4-(tetrahydro-2H-pyran-4-ylamino)-1H-pyrazolo[3,4-b]pyridin-5-yl]methyl}-2-methyl-5-(trifluoromethyl)-1,3-oxazole-4-carboxamide], the figure is 0.126 to 1 nM; as for `CCc1nc2c(cnn2CC)c(NC2CCOCC2)c1CNC(=O)C1CCCO1` (stereo not shown) [Example 156, N-{[1,6-diethyl-4-(tetrahydro-2H-pyran-4-ylamino)-1H-pyrazolo[3,4-b]pyridin-5-yl]methyl}tetrahydro-2-furancarboxamide], 0.126 to 1 nM.
To `CCc1nc2c(cnn2CC)c(NC2CCOCC2)c1CNC(=O)c1ccc(NC(C)=O)cc1OC` [Example 157, 4-(acetylamino)-N-{[1,6-diethyl-4-(tetrahydro-2H-pyran-4-ylamino)-1H-pyrazolo[3,4-b]pyridin-5-yl]methyl}-2-(methyloxy)benzamide] belongs 0.01 to 0.1 nM; to `CCc1nc2c(cnn2CC)c(NC2CCOCC2)c1CNC(=O)c1ccnn1C` [Example 158, N-{[1,6-diethyl-4-(tetrahydro-2H-pyran-4-ylamino)-1H-pyrazolo[3,4-b]pyridin-5-yl]methyl}-1-methyl-1H-pyrazole-5-carboxamide], 0.126 to 1 nM; to `CCOc1ncccc1C(=O)NCc1c(CC)nc2c(cnn2CC)c1NC1CCOCC1` [Example 159, N-{[1,6-diethyl-4-(tetrahydro-2H-pyran-4-ylamino)-1H-pyrazolo[3,4-b]pyridin-5-yl]methyl}-2-(ethyloxy)-3-pyridinecarboxamide], 0.01 to 0.1 nM.
Take `CCOc1ccccc1C(=O)NCc1c(CC)nc2c(cnn2CC)c1NC1CCOCC1` [Example 160, N-{[1,6-diethyl-4-(tetrahydro-2H-pyran-4-ylamino)-1H-pyrazolo[3,4-b]pyridin-5-yl]methyl}-2-(ethyloxy)benzamide]: the IC50 was 0.01 to 0.1 nM.
To `CCc1nc2c(cnn2CC)c(NC2CCOCC2)c1CNC(=O)c1cccc2c1OCC2` [Example 161, N-{[1,6-diethyl-4-(tetrahydro-2H-pyran-4-ylamino)-1H-pyrazolo[3,4-b]pyridin-5-yl]methyl}-2,3-dihydro-1-benzofuran-7-carboxamide] belongs 0.01 to 0.1 nM.
On to `CCc1nc2c(cnn2CC)c(NC2CCOCC2)c1CNS(=O)(=O)Cc1ccccc1` [Example 169, N-{[1,6-diethyl-4-(tetrahydro-2H-pyran-4-ylamino)-1H-pyrazolo[3,4-b]pyridin-5-yl]methyl}-1-phenylmethanesulfonamide], for which the IC50 was 0.126 to 1 nM.
As for `CCc1nc2c(cnn2CC)c(NC2CCOCC2)c1CNS(=O)(=O)C(C)C` [Example 173, N-{[1,6-diethyl-4-(tetrahydro-2H-pyran-4-ylamino)-1H-pyrazolo[3,4-b]pyridin-5-yl]methyl}-2-propanesulfonamide], the figure is 0.126 to 1 nM; as for `CCc1nc2c(cnn2CC)c(NC2CCOCC2)c1CNC(=O)c1nc2ccc(Cl)cc2nc1OC` [Example 174, 6-chloro-N-{[1,6-diethyl-4-(tetrahydro-2H-pyran-4-ylamino)-1H-pyrazolo[3,4-b]pyridin-5-yl]methyl}-3-(methyloxy)-2-quinoxalinecarboxamide], 0.01 to 0.1 nM.
